# In patent publication US8889411B2, “Modulation of stem and progenitor cell differentiation, assays, and uses thereof” (Anthrogenesis Corporation, priority 2002, dated 2014):
# Tests used:
# [1] = test system: Human Cord Blood CD34+ Cells; experiment: FACS analysis of proliferation and differentiation of cord blood CD34+ cells cultured with IL3, G-CSF and Kit-ligand; assay type: cell-based; settings: for CD11b+ Cell Population / CD34+CD38+ Cell Population / CD34+CD38− Cell Population: 7 days
# Protocol: CB CD34+ cells were initiated at 4×10^4 cells/ml in a 24-well plate in 20% FCS IMDM (fetal calf serum/Iscove's Modified Dulbecco's Medium) supplemented with cytokines (1 L3, GCSF and Kit-ligand) (R&D Systems, Inc.). Thalidomide (Thal), ACTIMID™ or REVIMID™ were included in the culture at three different concentrations: 5 μg/ml, 1 μg/ml and 0.3 μg/ml. The same volumes of DMSO were used as controls. A negative control without, any compound was also used (indicated by “none” in FIGS. 3-7). Cells were cultured at 37° C. and 5% CO2 in a humidified incubator for 7 days. Cells were then harvested from each well.
# The total cell number from each well was determined by counting in a CELL-DYN® 1700 (Abbott Diagnostics) and the expression of CXCR4, CD45, CD34, CD38, CD 1 lb and Gly-A expression was analyzed by FACS (fluorescence-activated cell sorting) staining (FIGS. 3-7).
# CB cells from two different donors (CB2276 and CB2417) were cultured, assayed and analyzed separately (Table 1).
# [2] = test system: Purified human cord blood CD34+ cells; experiment: Monocyte production: CD34/CD14 staining of cord blood CD34+ cells cultured 14 days with cytokines; assay type: cell-based
# Protocol: Purified human cord blood CD34+ cells (greater than 90% CD34+) were cultured in 20% FCS IMDM medium supplemented with cytokines (IL3, IL6, G-CSF, KL and Epo) at 4×10^4 cells/ml for 14 days at 37° C. in a humidified 5% CO2 incubator. The experimental groups consisted of a group in which (i) no DMSO or chemical compounds were added (“None”), (ii) DMSO only, (iii) Thalidomide dissolved in DMSO, (iv) ACTIMID™ dissolved in DMSO, and (v) REVIMID™ dissolved in DMSO. Aliquots of cells were harvested and stained with CD34-PE conjugated monoclonal antibody and CD14-FITC conjugated monoclonal antibody.
# [3] = test system: Human Cord Blood MNC Cells; experiment: FACS analysis of cryopreserved and thawed cord blood MNCs after 1 week of culture with cytokines; assay type: cell-based; settings: 5 μg in 1.7 μl DMSO, average +/− SD of three wells
# Protocol: Cord blood MNCs that had been cryopreserved and thawed using standard methods were isolated by standard Ficoll separation method and cultured in 24 well-plate at 0.5×10^6 cells/ml in 20% FCS-IMDM with cytokines (1L6, KL and G-CSF 10 ng/ml each) in triplicates. The experimental groups were None (cytokines only), DMSO (1.7 μl), ACTIMID™ (5.0 μg in 1.7 μl DMSO), REVIMID™ (5 μg in 1.7 μl DMSO). The cultured cells were harvested and analyzed by FACS staining after 1 week of culture. The data are expressed as an average +/− SD from three independent wells.
# [4] = test system: Cord blood CD34+ hematopoietic progenitor cells; experiment: Colony forming unit (CFU) generation from cord blood CD34+ cells; assay type: cell-based, human; settings: IL-3, G-CSF, kit-ligand, vs DMSO
# Protocol: FIG. 1. Bar graph indicating results of culturing cord blood CD34+ cells in the presence of Thalidomide (THD), ACTIMID™, and REVIMID™ at concentrations of 1 μg/ml and 10 μg/ml. An equal volume of DMSO was used as a negative control. Hematopoietic colonies of burst forming units-erythroid (BFU-E), colony forming units-erythroid (CFU-E), colony forming units-granulocyte macrophage (CFU-GM) and total numbers of colonies (CFU-Total) were scored under the light microscope at day 14 of culture. Y-axis: numbers of colonies. See Section 6.1 for details.
# Cord blood CD34+ hematopoietic progenitor cells were plated in 96 well cultivation dishes at a density of 1000 cells per well in IMDM supplemented with 20% fetal calf serum and cytokines (IL-3, G-CSF and kit-ligand (R&D Systems, Inc.) The cells were exposed to Thalidomide (Thal), ACTIMID™ and REVIMID™, or DMSO (a control compound), and allowed to culture for 6 days. […] After culturing, cells were stained and sorted with a fluorescence activated. cell sorter (FACS). 400 μL of stained cells were harvested and diluted to 1.0 ml with 1% fetal calf serum in phosphate buffered saline (PBS). Cells were counted to determine the effect of modulation of stem cell differentiation.
# [5] = test system: human cord blood CD45+ cells; experiment: Flow cytograms of cord blood CD45+ cells cultured 14 days with IL3, IL6, G-CSF, Epo and KL; assay type: cell-based; settings: 5 μg/ml, FIG. 10
# Protocol: FIGS. 9(A-F). Flow cytograms. […] Cord blood CD45+ cells were cultured for 14 days with cytokines IL3, IL6, G-CSF, Epo and KL. Percentages indicated on each cytogram indicate the percentage of the cell population expressing a particular combination of markers. A. Control, immunoglobulin (Ig). B. Control, no compound added. C. DMSO (5 μg/ml). D. Thal (5 μg/ml). E. ACTIMID™ (5 μg/ml). F. REVIMID™ (5 μg/ml). X-axis: relative intensity of CD38 (FL1-H) staining. Y-axis: relative intensity of CD19 (FL2-H) staining. See Section 6.3 for details.
# FIGS. 10(A-F). Flow cytograms. […] Cord blood CD45+ cells were cultured for 14 days with cytokines IL3, IL6, G-CSF, Epo and KL. Percentages indicated on each cytogram indicate the percentage of the cell population expressing a particular combination of markers. A. Control, immunoglobulin (Ig). B. Control, no compound added. C. DMSO (5 μg/ml). D. Thal (5 μg/ml). E. ACTIMID™ (5 μg/ml). F. REVIMID™ (5 μg/ml). X-axis: relative intensity of CXCR5 (FL1-H) staining. Y-axis: relative intensity of CD34 (FL2-H) staining. See Section 6.3 for details.
compound,measurement,setting,value
"Nc1cccc2c1CN(C1CCC(=O)NC1=O)C2=O (stereo not drawn) [REVIMID™, 3-(4-amino-1-oxo-1,3-dihydro-isoindol-2-yl)-piperidine-2,6-dione]",expression of CXCR4,[1]; FACS analysis of surface proteins,inhibitory effect
same,yield of cells,"[1]; IL-3, KL and G-CSF, compared with the DMSO control",slightly higher number of cells
same,effect on the proliferation of CD34+ cells,"[1]; IL-3, KL and G-CSF, compared with the negative control (none)",do not have a significant effect
same,CD11b+ Cell Population,"[1]; donor CB2276, 0.3 μg/ml",13.3%
same,CD34+CD38+ Cell Population,"[1]; donor CB2276, 0.3 μg/ml",1.7
same,CD34+CD38− Cell Population,"[1]; donor CB2276, 0.3 μg/ml",9.8
same,CD11b+ Cell Population,"[1]; donor CB2276, 1 μg/ml",8.6%
same,CD34+CD38+ Cell Population,"[1]; donor CB2276, 1 μg/ml",1
same,CD34+CD38− Cell Population,"[1]; donor CB2276, 1 μg/ml",10.3
same,CD11b+ Cell Population,"[1]; donor CB2276, 5 μg/ml",4.8%
same,CD34+CD38+ Cell Population,"[1]; donor CB2276, 5 μg/ml",0.3
same,CD34+CD38− Cell Population,"[1]; donor CB2276, 5 μg/ml",4.0
same,CD11b+ Cell Population,"[1]; donor CB2417, 0.3 μg/ml",11.2%
same,CD34+CD38+ Cell Population,"[1]; donor CB2417, 0.3 μg/ml",0.9
same,CD34+CD38− Cell Population,"[1]; donor CB2417, 0.3 μg/ml",3.4
same,CD11b+ Cell Population,"[1]; donor CB2417, 1 μg/ml",8.2%
same,CD34+CD38+ Cell Population,"[1]; donor CB2417, 1 μg/ml",0.6
same,CD34+CD38− Cell Population,"[1]; donor CB2417, 1 μg/ml",3.8
same,CD11b+ Cell Population,"[1]; donor CB2417, 5 μg/ml",5.5%
same,CD34+CD38+ Cell Population,"[1]; donor CB2417, 5 μg/ml",0.3
same,CD34+CD38− Cell Population,"[1]; donor CB2417, 5 μg/ml",4.2
same,CD38 status of the majority of CD34+ and CD34− cells,[1]; treated cell populations,CD38−
same,level of CD11b expression by mean immunofluorescence (MIF),[1]; treated cells,decreased
same,percentage of monocyte lineage cells,"[2]; 5 μg/ml, compared to control, FIG. 13",increase
same,percentage of CD34+ cells of the total cells,"[2]; 14 days, IL3, IL6, G-CSF, KL and Epo, compound dissolved in DMSO",7.1%
same,production of monocytes (CD14+ cells),"[2]; 14 days, relative to DMSO-treated group",overcome
same,CD34(%),[3],2.34 +/− 0.22%
same,CD34+CD38−(%),[3],0.80 +/− 0.29%
same,CXCR4+CD45+(%),[3],3.6 +/− 0.9%
same,CXCR4+CD45−(%),[3],3.28 +/− 0.89%
same,Total CD34+ cells,[3],7166 +/− 802
same,Total cells (1 × 10^6),[3],0.30 +/− 0 1 × 10^6
same,generation of erythropoietic colonies (BFU-E and CFU-E),[4],suppress
same,generation of leukocyte and platelet forming colonies (CFU-GM),[4],augmenting
same,total colony forming unit (CFU-Total) production,[4],enhancing
same,repression of CXCR5 produced by exposure to DMSO,[5],overcomes the repression
